Laboratory results taken from patent US20240327411A1, “SIRT6 ACTIVATORS” (The Board of Regents of The University of Texas System, priority 2022, published 2024).
Where “and” joins values, the source holds several entries; their conditions need not be identical. Identical values can stand only once.

Molecular target: Sirt6 (Homo sapiens, UniProt Q8N6T7)
Assay: Sirt6-dependent peptide deacetylation, FLUOR DE LYS / Sirt6 fluorometric activity kit
Assay type: biochemical
Details: mean ± SD, at least two independent experiments; for Activation Fold 100 μM: compound at 100 μM; for Activation Fold 30 μM: compound at 30 μM
Procedure: Sirt6/Sirt1/Sirt2/Sirt3 activity was tested by Activity Assay Kits (Abcam) according to the manufacturer's instruction with minor modification. […] All experiments were conducted at room temperature.

Sirt6, sequence (Q8N6T7 whole entry): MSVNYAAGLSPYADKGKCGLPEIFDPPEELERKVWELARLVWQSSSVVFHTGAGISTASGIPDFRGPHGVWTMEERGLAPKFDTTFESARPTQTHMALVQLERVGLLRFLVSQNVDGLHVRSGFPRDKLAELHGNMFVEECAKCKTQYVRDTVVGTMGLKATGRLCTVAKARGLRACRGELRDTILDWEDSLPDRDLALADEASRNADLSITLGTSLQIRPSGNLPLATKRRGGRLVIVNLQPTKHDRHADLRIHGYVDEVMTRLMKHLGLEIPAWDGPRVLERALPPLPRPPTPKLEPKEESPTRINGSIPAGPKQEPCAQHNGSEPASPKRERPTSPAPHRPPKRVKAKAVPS

For `Clc1ncccc1C1Nc2ccccc2-n2cccc21` (stereo not shown) [Compound 14, 4-(2-Chloropyridin-3-yl)-4,5-dihydropyrrolo[1,2-a]quinoxaline], the “Activation Fold 100 μM” value was 1.04 ± 0.02 fold.
`CN(C)c1ncccc1C1Nc2ccccc2-n2cccc21` (stereo not shown) [Compound 15, 3-(4,5-Dihydropyrrolo[1,2-a]quinoxalin-4-yl)-N,N-dimethylpyridin-2-amine] was tested, and the “Activation Fold 100 μM” value was 1.08 ± 0.09 fold.
In the case of `c1ccc2c(c1)NC(c1cccnc1N1CCC1)c1cccn1-2` (stereo not shown) [Compound 16, 4-(2-(Azetidin-1-yl)pyridin-3-yl)-4,5-dihydropyrrolo[1,2-a]quinoxaline], the “Activation Fold 100 μM” value is reported as 1.38 ± 0.11 fold.
With `OC1CN(c2ncccc2C2Nc3ccccc3-n3cccc32)C1` (stereo not shown) [Compound 17, 1-(3-(4,5-Dihydropyrrolo[1,2-a]quinoxalin-4-yl)pyridin-2-yl)azetidin-3-ol] the “Activation Fold 100 μM” value was 1.47 ± 0.10 fold.
In the case of `c1ccc2c(c1)NC(c1cccnc1N1CCCC1)c1cccn1-2` (stereo not shown) [Compound 18, 4-(2-(Pyrrolidin-1-yl)pyridin-3-yl)-4,5-dihydropyrrolo[1,2-a]quinoxaline], the “Activation Fold 100 μM” value is reported as 1.22 ± 0.03 fold.
With `CN1CCCN(c2ncccc2C2Nc3ccccc3-n3cccc32)CC1` (stereo not shown) [Compound 19, 4-(2-(4-Methyl-1,4-diazepan-1-yl)pyridin-3-yl)-4,5-dihydropyrrolo[1,2-a]quinoxaline] the “Activation Fold 30 μM” value was 2.18 ± 0.02 fold and the “Activation Fold 100 μM” value was 4.23 ± 0.06 fold.
For `CN1C[C@@H]2CN(c3ncccc3C3Nc4ccccc4-n4cccc43)C[C@@H]2C1` (stereo partly drawn) [Compound 20, 4-(2-((3aR,6aS)-5-Methylhexahydropyrrolo[3,4-c]pyrrol-2(1H)-yl)pyridin-3-yl)-4,5-dihydropyrrolo[1,2-a]quinoxaline], the “Activation Fold 30 μM” value was 2.00 ± 0.11 fold and the “Activation Fold 100 μM” value was 4.24 ± 0.04 fold.
With `CN1CCN(c2ncccc2C2Nc3ccccc3-n3cccc32)CC1` (stereo not shown) [Compound 21, 4-(2-(4-Methylpiperazin-1-yl)pyridin-3-yl)-4,5-dihydropyrrolo[1,2-a]quinoxaline] the “Activation Fold 30 μM” value was 2.44 fold and 2.44 ± 0.04 fold and the “Activation Fold 100 μM” value was 4.62 fold and 4.62 ± 0.12 fold.
For `CC(=O)N1CCN(c2ncccc2C2Nc3ccccc3-n3cccc32)CC1` (stereo not shown) [Compound 22, 1-(4-(3-(4,5-Dihydropyrrolo[1,2-a]quinoxalin-4-yl)pyridin-2-yl)piperazin-1-yl)ethan-1-one], the “Activation Fold 30 μM” value was 1.60 ± 0.01 fold and the “Activation Fold 100 μM” value was 2.74 fold and 2.74 ± 0.10 fold.
`CS(=O)(=O)N1CCN(c2ncccc2C2Nc3ccccc3-n3cccc32)CC1` (stereo not shown) [Compound 23, 4-(2-(4-(Methylsulfonyl)piperazin-1-yl)pyridin-3-yl)-4,5-dihydropyrrolo[1,2-a]quinoxaline] was tested, and the “Activation Fold 30 μM” value was 2.03 ± 0.02 fold and the “Activation Fold 100 μM” value was 3.63 fold and 3.63 ± 0.10 fold.
With `FC1(F)CCN(c2ncccc2C2Nc3ccccc3-n3cccc32)CC1` (stereo not shown) [Compound 25, 4-(2-(4,4-Difluoropiperidin-1-yl)pyridin-3-yl)-4,5-dihydropyrrolo[1,2-a]quinoxaline] the “Activation Fold 100 μM” value was ~2 fold and 1.54 ± 0.03 fold.
With `O=S1(=O)CCN(c2ncccc2C2Nc3ccccc3-n3cccc32)CC1` (stereo not shown) [Compound 26, 4-(3-(4,5-Dihydropyrrolo[1,2-a]quinoxalin-4-yl)pyridin-2-yl)thiomorpholine 1,1-dioxide] the “Activation Fold 30 μM” value was 1.32 ± 0.01 fold and the “Activation Fold 100 μM” value was ~2 fold and 2.24 ± 0.09 fold.
For `OC1CCN(c2ncccc2C2Nc3ccccc3-n3cccc32)CC1` (stereo not shown) [Compound 27, 1-(3-(4,5-Dihydropyrrolo[1,2-a]quinoxalin-4-yl)pyridin-2-yl)piperidin-4-ol], the “Activation Fold 30 μM” value was 1.29 ± 0.05 fold and the “Activation Fold 100 μM” value was ~2 fold and 2.38 ± 0.15 fold.
For `c1ccc2c(c1)NC(c1cccnc1N1CCC(N3CCCC3)CC1)c1cccn1-2` (stereo not shown) [Compound 29, 4-(2-(4-(Pyrrolidin-1-yl)piperidin-1-yl)pyridin-3-yl)-4,5-dihydropyrrolo[1,2-a]quinoxaline], the “Activation Fold 30 μM” value was 1.89 ± 0.01 fold and the “Activation Fold 100 μM” value was 3.44 fold and 3.44 ± 0.07 fold.
With `COCCCN1CCN(c2ncccc2C2Nc3ccccc3-n3cccc32)CC1` (stereo not shown) [Compound 37, 4-(2-(4-(3-Methoxypropyl)piperazin-1-yl)pyridin-3-yl)-4,5-dihydropyrrolo[1,2-a]quinoxaline] the “Activation Fold 30 μM” value was 3.13 ± 0.14 fold and the “Activation Fold 100 μM” value was 5.02 ± 0.25 fold.
For `CN(C)C(=O)CN1CCN(c2ncccc2C2Nc3ccccc3-n3cccc32)CC1` (stereo not shown) [Compound 39, 2-(4-(3-(4,5-Dihydropyrrolo[1,2-a]quinoxalin-4-yl)pyridin-2-yl)piperazin-1-yl)-N,N-dimethylacetamide], the “Activation Fold 30 μM” value was 3.21 ± 0.06 fold and the “Activation Fold 100 μM” value was 6.60 ± 0.22 fold.
In the case of `N#CCN1CCN(c2ncccc2C2Nc3ccccc3-n3cccc32)CC1` (stereo not shown) [Compound 40, 2-(4-(3-(4,5-Dihydropyrrolo[1,2-a]quinoxalin-4-yl)pyridin-2-yl)piperazin-1-yl)acetonitrile], the “Activation Fold 30 μM” value is reported as 2.37 ± 0.04 fold and the “Activation Fold 100 μM” value is reported as 4.74 ± 0.26 fold.
With `NC(=O)CN1CCN(c2ncccc2C2Nc3ccccc3-n3cccc32)CC1` (stereo not shown) [Compound 41, 2-(4-(3-(4,5-Dihydropyrrolo[1,2-a]quinoxalin-4-yl)pyridin-2-yl)piperazin-1-yl)acetamide] the “Activation Fold 30 μM” value was 1.73 ± 0.12 fold and the “Activation Fold 100 μM” value was 3.43 ± 0.48 fold.
`O=C(CCl)N1CCN(c2ncccc2C2Nc3ccccc3-n3cccc32)CC1` (stereo not shown) [Compound 42, 2-Chloro-1-(4-(3-(4,5-dihydropyrrolo[1,2-a]quinoxalin-4-yl)pyridin-2-yl)piperazin-1-yl)ethan-1-one] was tested, and the “Activation Fold 30 μM” value was 1.93 ± 0.02 fold and the “Activation Fold 100 μM” value was 2.84 ± 0.28 fold.
`CN(C)CC(=O)N1CCN(c2ncccc2C2Nc3ccccc3-n3cccc32)CC1` (stereo not shown) [Compound 43, 1-(4-(3-(4,5-Dihydropyrrolo[1,2-a]quinoxalin-4-yl)pyridin-2-yl)piperazin-1-yl)-2-(dimethylamino)ethan-1-one] was tested, and the “Activation Fold 30 μM” value was 2.31 ± 0.07 fold and the “Activation Fold 100 μM” value was 3.78 ± 0.15 fold.
With `O=C(N1CCN(c2ncccc2C2Nc3ccccc3-n3cccc32)CC1)N1CC(O)C1` (stereo not shown) [Compound 44, (4-(3-(4,5-Dihydropyrrolo[1,2-a]quinoxalin-4-yl)pyridin-2-yl)piperazin-1-yl)(3-hydroxyazetidin-1-yl)methanone] the “Activation Fold 30 μM” value was 2.67 fold and 2.67 ± 0.19 fold and the “Activation Fold 100 μM” value was 5.26 fold and 5.26 ± 0.13 fold.
`c1ccc2c(c1)NC(c1cccnc1N1CCN(CCN3CCC3)CC1)c1cccn1-2` (stereo not shown) [Compound 45, 4-(2-(4-(2-(Azetidin-1-yl)ethyl)piperazin-1-yl)pyridin-3-yl)-4,5-dihydropyrrolo[1,2-a]quinoxaline] was tested, and the “Activation Fold 30 μM” value was 2.81 ± 0.01 fold and the “Activation Fold 100 μM” value was 5.85 ± 0.01 fold.
In the case of `O=C1CCCN1CCN1CCN(c2ncccc2C2Nc3ccccc3-n3cccc32)CC1` (stereo not shown) [Compound 48, 1-(2-(4-(3-(4,5-Dihydropyrrolo[1,2-a]quinoxalin-4-yl)pyridin-2-yl)piperazin-1-yl)ethyl)pyrrolidin-2-one], the “Activation Fold 30 μM” value is reported as 3.48 ± 0.02 fold and the “Activation Fold 100 μM” value is reported as 5.64 ± 0.43 fold.
With `c1ccc2c(c1)NC(c1cccnc1N1CCN(CCN3CCOCC3)CC1)c1cccn1-2` (stereo not shown) [Compound 49, 4-(2-(4-(3-(4,5-Dihydropyrrolo[1,2-a]quinoxalin-4-yl)pyridin-2-yl)piperazin-1-yl)ethyl)morpholine] the “Activation Fold 30 μM” value was 3.02 ± 0.04 fold and the “Activation Fold 100 μM” value was 5.99 ± 0.21 fold.
`CN(C)CCN1CCN(c2ccccc2C2Nc3ccccc3-n3cccc32)CC1` (stereo not shown) [Compound 63, 2-(4-(2-(4,5-Dihydropyrrolo[1,2-a]quinoxalin-4-yl)phenyl)piperazin-1-yl)-N,N-dimethylethan-1-amine] was tested, and the “Activation Fold 30 μM” value was 2.62 fold and 2.62 ± 0.34 fold and the “Activation Fold 100 μM” value was 5.43 fold and 5.43 ± 0.21 fold.
With `CN(C)CCN1CCN(c2ncccc2C2Oc3ccccc3-n3cccc32)CC1` (stereo not shown) [Compound 66, 2-(4-(3-(4H-Benzo[b]pyrrolo[1,2-d][1,4]oxazin-4-yl)pyridin-2-yl)piperazin-1-yl)-N,N-dimethylethan-1-amine] the “Activation Fold 30 μM” value was 2.67 fold and 2.67 ± 0.01 fold and the “Activation Fold 100 μM” value was 4.23 fold and 4.23 ± 0.22 fold.
For `Cc1ccc2c(c1)-n1cccc1C(c1cccnc1N1CCN(CCN(C)C)CC1)O2` (stereo not shown) [Compound 68, N,N-Dimethyl-2-(4-(3-(8-methyl-4H-benzo[b]pyrrolo[1,2-d][1,4]oxazin-4-yl)pyridin-2-yl)piperazin-1-yl)ethan-1-amine], the “Activation Fold 30 μM” value was 2.99 ± 0.05 fold and the “Activation Fold 100 μM” value was 4.56 ± 0.04 fold.
For `COc1ccc2c(c1)-n1cccc1C(c1cccnc1N1CCN(CCN(C)C)CC1)O2` (stereo not shown) [Compound 69, 2-(4-(3-(8-Methoxy-4H-benzo[b]pyrrolo[1,2-d][1,4]oxazin-4-yl)pyridin-2-yl)piperazin-1-yl)-N,N-dimethylethan-1-amine], the “Activation Fold 30 μM” value was 4.51 ± 0.06 fold and the “Activation Fold 100 μM” value was 5.65 ± 0.22 fold.
For `CN(C)CCN1CCN(c2ncccc2C2Oc3ccc(F)cc3-n3cccc32)CC1` (stereo not shown) [Compound 70, 2-(4-(3-(8-Fluoro-4H-benzo[b]pyrrolo[1,2-d][1,4]oxazin-4-yl)pyridin-2-yl)piperazin-1-yl)-N,N-dimethylethan-1-amine], the “Activation Fold 30 μM” value was 1.84 ± 0.04 fold and the “Activation Fold 100 μM” value was 2.53 fold and 2.53 ± 0.05 fold.
